In paper PMC11791199 (Scientific Reports, 2025):
“Also recorded” adds a separate entry of the source.

What was measured:
[1] = target: ClpC1 NTD F80A mutant (Mycobacterium tuberculosis, UniProt P9WPC9, F80A); assay type: binding
[2] = target: ClpC1 NTD K85A mutant (Mycobacterium tuberculosis, UniProt P9WPC9, K85A); assay type: binding

CC1=C[C@@H](/C=C(\Cl)c2ccc(C(=O)O)cc2)[C@]2(C(=O)O)C=C[C@@H](CCOC(=O)c3ccc(NCc4ccccc4)cc3)C[C@@H]2C1 [F5, (2R,4aR,5S,8aR)-2-(2-((4-(benzylamino)benzoyl)oxy)ethyl)-5-((Z)-2-(4-carboxyphenyl)-2-chlorovinyl)-7-methyl-1,5,8,8a-tetrahydronaphthalene-4a(2H)-carboxylic acid]
binding by ITC [1]: no binding could be observed; also recorded: no binding was observed
binding by ITC [2]: no binding could be observed; also recorded: no binding was observed
